Data from ChEMBL document CHEMBL5365547, “Unleashing the Potential of 1,3-Diketone Analogues as Selective LH2 Inhibitors” (ACS Med Chem Lett, 2023).
Active and inactive are the calls of the source. No cut-off for these calls is given here.

Experiments:
[1] = molecular target: T1, Procollagen-lysine,2-oxoglutarate 5-dioxygenase 2 (Homo sapiens, UniProt O00469); assay: Inhibition of human recombinant LH2 expressed in CHO cells incubated for 30 mins by luciferase-based Succinate-GloTM JmjC Demethylase/Hydroxylase Assay; assay type: cell-based
T1 sequence (O00469 whole entry): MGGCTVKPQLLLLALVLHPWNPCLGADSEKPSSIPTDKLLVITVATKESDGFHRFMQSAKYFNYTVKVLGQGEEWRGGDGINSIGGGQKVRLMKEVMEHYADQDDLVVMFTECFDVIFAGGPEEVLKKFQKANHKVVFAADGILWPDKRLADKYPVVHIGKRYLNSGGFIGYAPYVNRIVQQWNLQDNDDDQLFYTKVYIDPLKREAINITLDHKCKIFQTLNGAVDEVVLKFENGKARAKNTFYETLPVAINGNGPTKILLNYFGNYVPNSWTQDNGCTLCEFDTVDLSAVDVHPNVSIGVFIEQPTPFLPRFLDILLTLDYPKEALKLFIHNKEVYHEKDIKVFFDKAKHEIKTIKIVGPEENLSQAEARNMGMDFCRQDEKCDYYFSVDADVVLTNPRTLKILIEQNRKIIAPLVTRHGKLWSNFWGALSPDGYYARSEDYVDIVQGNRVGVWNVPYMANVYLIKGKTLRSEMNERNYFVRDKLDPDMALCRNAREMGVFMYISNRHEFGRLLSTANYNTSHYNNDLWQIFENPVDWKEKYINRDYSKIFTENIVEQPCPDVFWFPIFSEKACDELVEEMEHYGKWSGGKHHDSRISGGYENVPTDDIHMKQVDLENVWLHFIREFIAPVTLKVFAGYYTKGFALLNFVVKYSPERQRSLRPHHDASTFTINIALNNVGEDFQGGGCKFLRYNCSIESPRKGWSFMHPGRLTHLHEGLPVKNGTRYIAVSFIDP

344SQ = assay: Antiproliferative activity against mouse wild type 344SQ cells assessed as reduction in cell viability observed after 48 hrs by CCK-8 assay; assay type: functional, cell-based
[2] = molecular target: T2, Procollagen-lysine,2-oxoglutarate 5-dioxygenase 1 (Homo sapiens, UniProt Q02809); assay: Inhibition of human recombinant LH1 expressed in CHO cells incubated for 30 mins by luciferase-based Succinate-GloTM JmjC Demethylase/Hydroxylase Assay; assay type: cell-based
T2 sequence (Q02809 whole entry): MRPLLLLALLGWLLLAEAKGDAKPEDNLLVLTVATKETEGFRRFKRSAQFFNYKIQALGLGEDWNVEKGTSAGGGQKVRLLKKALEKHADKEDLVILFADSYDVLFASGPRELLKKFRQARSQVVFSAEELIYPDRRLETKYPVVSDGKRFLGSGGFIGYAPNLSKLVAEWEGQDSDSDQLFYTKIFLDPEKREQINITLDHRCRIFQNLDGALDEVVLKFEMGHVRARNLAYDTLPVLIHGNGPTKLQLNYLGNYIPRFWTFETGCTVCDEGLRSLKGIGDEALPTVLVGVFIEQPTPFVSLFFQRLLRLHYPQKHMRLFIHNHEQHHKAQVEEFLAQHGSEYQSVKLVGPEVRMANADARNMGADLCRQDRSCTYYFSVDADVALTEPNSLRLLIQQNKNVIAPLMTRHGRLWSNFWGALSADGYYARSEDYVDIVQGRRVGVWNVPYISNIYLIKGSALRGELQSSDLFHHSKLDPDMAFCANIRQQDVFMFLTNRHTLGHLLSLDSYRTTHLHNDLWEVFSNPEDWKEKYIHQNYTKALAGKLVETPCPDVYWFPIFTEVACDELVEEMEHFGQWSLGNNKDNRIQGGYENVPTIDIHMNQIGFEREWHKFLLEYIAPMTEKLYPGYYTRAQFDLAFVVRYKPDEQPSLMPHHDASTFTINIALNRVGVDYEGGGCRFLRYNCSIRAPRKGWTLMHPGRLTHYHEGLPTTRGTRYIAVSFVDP

[3] = molecular target: T3, Multifunctional procollagen lysine hydroxylase and glycosyltransferase LH3 (Homo sapiens, UniProt O60568); assay: Inhibition of human recombinant LH3 expressed in CHO cells incubated for 30 mins by luciferase-based Succinate-GloTM JmjC Demethylase/Hydroxylase Assay; assay type: cell-based
T3 sequence (O60568 whole entry): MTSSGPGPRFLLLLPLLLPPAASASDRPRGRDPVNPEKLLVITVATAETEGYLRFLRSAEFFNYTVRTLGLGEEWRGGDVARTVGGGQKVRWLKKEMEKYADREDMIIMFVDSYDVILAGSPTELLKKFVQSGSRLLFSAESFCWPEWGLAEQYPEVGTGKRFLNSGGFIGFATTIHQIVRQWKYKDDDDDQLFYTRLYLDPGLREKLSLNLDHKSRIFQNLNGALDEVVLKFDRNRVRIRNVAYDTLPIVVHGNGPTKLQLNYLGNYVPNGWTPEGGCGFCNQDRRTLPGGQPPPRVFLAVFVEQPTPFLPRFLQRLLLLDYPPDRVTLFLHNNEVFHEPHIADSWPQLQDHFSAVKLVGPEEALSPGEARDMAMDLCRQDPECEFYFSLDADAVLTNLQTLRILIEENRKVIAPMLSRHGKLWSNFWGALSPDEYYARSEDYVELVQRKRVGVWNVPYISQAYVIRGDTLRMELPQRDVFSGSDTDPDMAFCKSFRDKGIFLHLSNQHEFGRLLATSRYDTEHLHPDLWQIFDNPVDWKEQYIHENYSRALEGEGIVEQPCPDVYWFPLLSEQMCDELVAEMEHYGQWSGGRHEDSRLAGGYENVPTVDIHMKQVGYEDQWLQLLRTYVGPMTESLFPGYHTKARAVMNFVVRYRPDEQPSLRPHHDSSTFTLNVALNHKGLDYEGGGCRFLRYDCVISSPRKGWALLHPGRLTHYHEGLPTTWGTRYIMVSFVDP

Homo sapiens [4] = organism: Homo sapiens; assay: Selectivity ratio of IC50 for inhibition of human recombinant LH1 to IC50 for inhibition of human recombinant LH2; conditions: time 30.0 min
Homo sapiens [5] = organism: Homo sapiens; assay: Selectivity ratio of IC50 for inhibition of human recombinant LH3 to IC50 for inhibition of human recombinant LH2
[6] = molecular target: T4, Lysine-specific demethylase 4A (Homo sapiens) (UniProt O75164); assay: Inhibition of JMJD2A (unknown origin) at 11 uM by Succinate-Glo kit assay
T4 sequence (whole entry): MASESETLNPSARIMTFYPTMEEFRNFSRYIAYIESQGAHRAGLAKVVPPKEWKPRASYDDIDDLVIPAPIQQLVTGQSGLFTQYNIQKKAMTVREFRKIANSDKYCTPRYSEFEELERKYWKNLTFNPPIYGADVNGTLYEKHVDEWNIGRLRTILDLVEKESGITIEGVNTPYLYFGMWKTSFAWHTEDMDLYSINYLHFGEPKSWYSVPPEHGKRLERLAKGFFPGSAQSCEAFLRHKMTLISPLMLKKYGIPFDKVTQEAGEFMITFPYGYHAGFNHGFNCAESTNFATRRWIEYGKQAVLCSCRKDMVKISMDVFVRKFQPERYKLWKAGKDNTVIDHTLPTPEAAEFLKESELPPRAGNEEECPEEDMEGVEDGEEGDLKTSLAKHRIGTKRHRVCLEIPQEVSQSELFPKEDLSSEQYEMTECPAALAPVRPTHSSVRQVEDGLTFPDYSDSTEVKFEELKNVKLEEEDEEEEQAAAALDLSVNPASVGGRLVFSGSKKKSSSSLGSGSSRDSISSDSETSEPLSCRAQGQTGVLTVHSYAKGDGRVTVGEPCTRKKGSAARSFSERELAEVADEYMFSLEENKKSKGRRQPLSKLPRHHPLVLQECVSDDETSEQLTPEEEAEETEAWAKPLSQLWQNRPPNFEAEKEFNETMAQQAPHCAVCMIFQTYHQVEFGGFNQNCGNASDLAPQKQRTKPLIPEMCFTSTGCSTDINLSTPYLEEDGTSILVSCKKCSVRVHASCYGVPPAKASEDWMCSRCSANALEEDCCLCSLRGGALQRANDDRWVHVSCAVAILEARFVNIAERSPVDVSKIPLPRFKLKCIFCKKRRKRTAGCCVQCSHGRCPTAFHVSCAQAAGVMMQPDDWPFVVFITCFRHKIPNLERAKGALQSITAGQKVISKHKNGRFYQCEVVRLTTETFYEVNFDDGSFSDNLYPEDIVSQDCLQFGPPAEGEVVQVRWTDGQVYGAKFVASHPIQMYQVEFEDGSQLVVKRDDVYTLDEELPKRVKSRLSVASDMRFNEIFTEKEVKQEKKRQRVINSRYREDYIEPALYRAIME

Compound	IC50 ([1]; read-out: IC50)	also measured
O=C(c1cccnc1)C1CCc2cc(Cl)ccc2C1=O (stereo not drawn)	–	IC50 ([1]; cho): Not Active
O=C(CC(=O)c1cccnc1)c1ccc(C(F)(F)F)cc1	–	IC50 ([1]; cho): Not Active
O=C(CC(=O)c1nnn[nH]1)c1cccc(N2CCOCC2)c1	> 10 µM	–
CN1CCN(c2cccc(-c3cc(-c4ccncc4)n[nH]3)c2)CC1	> 10 µM	–
CN1CCN(c2cccc(C(=O)CC(=O)c3nnn[nH]3)c2)CC1	> 10 µM	–
c1cc(-c2cc(-c3ccncc3)n[nH]2)cc(N2CCOCC2)c1	> 10 µM	–
Cc1ccc(C(=O)CC(=O)c2cccc(N3CCOCC3)c2)cc1	–	IC50 ([1]; cho): Not Active
CN1CCN(c2cccc(C(=O)CC(=O)c3ccncc3)c2)CC1	–	Activity (344SQ): inactive
O=C(c1cccnc1)C1CCc2cc(F)ccc2C1=O (stereo not drawn)	> 10 µM	–

Further lines, with some results ahead:

IC50 ([1]; read-out: IC50)	Compound	also measured
5 µM	O=C(CC(=O)c1cccnc1)c1ccccc1	–
> 10 µM	O=C(CC(=O)C(F)(F)F)c1ccc([N+](=O)[O-])cc1	–
1 µM	O=C(CC(=O)c1ccncc1)c1ccccc1	IC50 [2]: 6.4 µM; IC50 [3]: 5.2 µM; Selectivity ratio (Homo sapiens [4]): 6; Selectivity ratio (Homo sapiens [5]): 5; inhibition [6]: Active
> 10 µM	O=C(CC(=O)c1cccnc1)c1ccc([N+](=O)[O-])cc1	–
